In patent publication US20260265334A1, “STAPLED PEPTIDES” (THE FLOREY INSTITUTE OF NEUROSCIENCE AND MENTAL HEALTH, priority 2023, published 2026):
Bridge positions count the residues as written; N and C are the ends. Peptide text beside a SMILES is read from it. I, II: the chains in the order shown.

Legend:
[1] = system: mouse model of inflammatory persistent pain; test: CFA model of inflammatory persistent pain; format: in vivo; settings: co-injection with RXFP3 agonist
Description: Pilot studies were conducted in a mouse model of inflammatory persistent pain obtained by intraplantar injection of Complete Freund's Adjuvant (CFA). […] The effect is maximal at 30 minutes after the injection and vanished after 1 hour. The same result has been obtained in a rat CFA model with a similar time course of the antinociceptive effect.

C57B16 mice = test: Colorectal propulsion (bead expulsion) in loperamide-constipated mice; format: in vivo, mouse; settings: 20 μg/kg i.p., 10 minutes after loperamide 1 mg/kg s.c.
Description: Male C57B16 mice (20-30 g; ARC), between the ages of 3 to 5 months, were used for all studies. All experiments were conducted in accordance with the National Health and Medical Research Council (NHMRC) guidelines for the care and use of animals and with approval from the Florey Institute of Neuroscience and Mental Health Animal Ethics Committee (#18-128 FINMH and #18-081 FINMH). All animals were group housed (2-6 per cage) and maintained in a humidity-controlled room at 22° C. under a 12 hours light/dark cycle with access to food and water ad libitum.
Loperamide (Sigma-Aldrich) was prepared in 1% Tween-80 (SigmaAldrich) in distilled water and was administered subcutaneously (s.c.) at the back of the neck to induce constipation. Mice were injected with either vehicle (1% Tween-80/water) or loperamide (0.3, 1, 3 mg/kg). INSL5-A13 (20 μg/kg) (SEQ ID NOs 9 and 10) and single-chain αF stapled analogue (200 μg/kg) (SEQ ID NO 16) were dissolved in distilled water and injected intraperitoneally (i.p.) 10 minutes after loperamide was administered (1 mg/kg, s.c.). At 20 minutes post peptide injection, mice were lightly anesthetized with 2% (v/v) isoflurane in O2, administered at 1 L/min for a maximum of 15 seconds following induction with 5% isoflurane in O2 at 1 L/min. […] The time taken from bead insertion to bead expulsion was recorded. […] The time was scored as 30 minutes. […]

RXFP4 [2] = target: T1, RXFP4 (Homo sapiens, UniProt Q8TDU9); test: Eu-R3/I5 competition binding assay in CHO-K1-RXFP4 cells; set-up: expressed in transfected cells; settings: RXFP4; Table 5
T1 sequence (Q8TDU9 whole entry): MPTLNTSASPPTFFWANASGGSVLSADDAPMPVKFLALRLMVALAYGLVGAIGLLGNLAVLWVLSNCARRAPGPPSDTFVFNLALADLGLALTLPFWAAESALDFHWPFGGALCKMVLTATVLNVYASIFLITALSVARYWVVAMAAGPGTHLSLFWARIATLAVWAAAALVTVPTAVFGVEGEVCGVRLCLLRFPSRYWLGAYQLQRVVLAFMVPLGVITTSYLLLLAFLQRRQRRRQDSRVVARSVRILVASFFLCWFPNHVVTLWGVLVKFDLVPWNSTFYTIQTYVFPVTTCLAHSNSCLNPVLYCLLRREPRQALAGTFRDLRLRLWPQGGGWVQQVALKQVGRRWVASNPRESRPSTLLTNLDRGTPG

RXFP4 [3] = target: T1, RXFP4; test: Inhibition of forskolin-induced cAMP activity in CHO-K1-RXFP4 cells (pCRE β-galactosidase reporter); format: cell-based; set-up: expressed in transfected cells; settings: RXFP4; Table 5

## R3(B1-22): R3(B1-22) RXFP3 antagonist, co-injected in pain model; possibly the same as H3B1-22R (RAAPYGVRLSGREFIRAVIFTSR)
[1]
  effect of co-injection on the antinociceptive effects of the agonists: fully abolished

## CC[C@H](C)[C@@H]1NC(=O)[C@H](Cc2ccc(O)cc2)NC(=O)[C@H]([C@@H](C)CC)NC(=O)[C@H](C(C)C)NC(=O)[C@H]([C@@H](C)O)NC(=O)[C@H](CCCNC(=N)N)NC(=O)[C@H]([C@@H](C)CC)NC(=O)[C@H](Cc2ccc(O)cc2)NC(=O)[C@H](CCC(=O)O)NC(=O)[C@H](CC(C)C)NC(=O)CNC(=O)[C@@H](NC(=O)[C@H](CC(C)C)NC(=O)[C@H](CCCNC(=N)N)NC(=O)[C@@H](NC(=O)[C@H](CO)NC(=O)[C@H](CCC(=O)O)NC(=O)[C@@H](N)CCCCN)C(C)C)CSSC[C@H](N)C(=O)N[C@@H]([C@@H](C)O)C(=O)N[C@@H](CC(=O)O)C(=O)NCC(=O)N[C@@H](C)C(=O)N[C@@H](CO)C(=O)N[C@@H](CCSC)C(=O)N[C@@H](CCCCN)C(=O)N[C@@H](CC(=O)O)C(=O)N[C@@H](CC(C)C)C(=O)N[C@@H](CO)C(=O)N[C@@H](C)C(=O)N[C@@H](CC(C)C)C(=O)N[C@H](C(=O)O)CSSC[C@@H](C(=O)N[C@@H](C)C(=O)N[C@@H](CO)C(=O)N[C@@H](CO)C(=O)N[C@@H](CCCNC(=N)N)C(=O)N[C@@H](Cc2c[nH]c3ccccc23)C(=O)O)NC1=O [INSL5-A13] (I: H-KESVRLCGLEYIRTVIYICASSRW-OH / II: H-CTDGASMKDLSALC-OH; disulfide I:7-II:1, I:19-II:14; N-terminus and C-terminus assumed)
C57B16 mice
  colorectal propulsion (bead expulsion): effective in accelerating colorectal propulsion
RXFP4 [2]
  Eu-R3/I5 pKi: 7.46 ± 0.06 (7)
RXFP4 [3]
  cAMP pEC50: 8.10 ± 0.10 (4)
